Measured values published in patent publication US9073855B2, “BCL-2 selective apoptosis-inducing agents for the treatment of cancer and immune diseases” (AbbVie Inc., priority 2008, dated 2015).
pEC50, pKi: −log10 of the molar value.

How the values were obtained:
GST-Bcl-XL = GST-Bcl-XL (Homo sapiens, UniProt Q07817); assay: TR-FRET binding assay, GST-Bcl-XL with F-Bak peptide probe; conditions: TR-FRET Binding Affinity, GST-Bcl-XL, F-Bak peptide probe
Outline: (§1)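 Compounds were serially diluted in DMSO from a 50 μM starting solution (2× the starting concentration; 10% DMSO). Plates were incubated for 3 h at room temperature, and TR-FRET was read with 340/35 nm excitation and emission at 520/525 nm (F-Bak) and 495/510 nm (Tb antibody). Ki values were calculated using Wang's competitive-binding equation.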

Canine platelets = assay: Platelet cell viability assay (platelet-rich plasma, Cell Titer Glo); format: cell-based; conditions: Canis lupus familiaris, 5 h, isolated canine platelets ex vivo, five hours at 37° C.
Outline: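 Isolated canine platelets were incubated ex vivo with a range of compound concentrations. After 20 min equilibration at room temperature, viability was measured by Cell Titer Glo luminescence.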

FL5.12/Bcl-2 cells = assay: FL5.12/Bcl-2 cell viability assay under IL-3 withdrawal (CellTitre Glo); format: cell-based, murine; conditions: Mus musculus, IL-3 withdrawn 48 hrs, then 24 hrs with compound
Outline: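 Viability measured by CellTitre Glo after FL5.12/Bcl-2 murine cells, starved of IL-3 for 48 hrs, were treated with compounds for another 24 hrs. Killing reflects inhibition of Bcl-2 sequestration of Bim and Puma.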

GST-Bcl-2 = GST-Bcl-2 (Homo sapiens, UniProt P10415); assay: TR-FRET binding assay, GST-Bcl-2 with F-Bak peptide probe; conditions: TR-FRET Binding Affinity, GST-Bcl-2, F-Bak peptide probe
Sequence of GST-Bcl-2 (P10415 whole entry): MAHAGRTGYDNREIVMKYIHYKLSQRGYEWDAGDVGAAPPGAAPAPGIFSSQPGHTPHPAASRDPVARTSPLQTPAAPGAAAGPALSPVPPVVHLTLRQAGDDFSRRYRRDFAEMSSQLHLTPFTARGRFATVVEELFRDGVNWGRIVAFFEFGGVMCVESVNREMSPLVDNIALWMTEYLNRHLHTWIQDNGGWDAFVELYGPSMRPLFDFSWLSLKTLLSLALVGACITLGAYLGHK
Outline: as §1

Sequence of GST-Bcl-XL (Q07817 whole entry): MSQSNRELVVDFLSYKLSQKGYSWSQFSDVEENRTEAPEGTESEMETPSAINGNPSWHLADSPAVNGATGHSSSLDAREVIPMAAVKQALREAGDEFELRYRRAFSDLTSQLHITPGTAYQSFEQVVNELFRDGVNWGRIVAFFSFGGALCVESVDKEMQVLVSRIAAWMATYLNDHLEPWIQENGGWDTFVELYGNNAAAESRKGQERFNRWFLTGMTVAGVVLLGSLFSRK

CN(C)CCOc1ccc(-c2ccc(Cl)cc2)c(CN2CCN(c3ccc(C(=O)NS(=O)(=O)c4ccc(NC5CCN(CC(F)(F)F)CC5)c([N+](=O)[O-])c4)c(Oc4ccccc4)c3)CC2)c1 [Example 137, 4-[4-({4′-chloro-4-[2-(dimethylamino)ethoxy]-1,1′-biphenyl-2-yl}methyl)piperazin-1-yl]-N-[(3-nitro-4-{[1-(2,2,2-trifluoroethyl)piperidin-4-yl]amino}phenyl)sulfonyl]-2-phenoxybenzamide]
pKi (GST-Bcl-XL): 7.80
pEC50 (Canine platelets): < 4.30
pEC50 (FL5.12/Bcl-2 cells): 6.55
pKi (GST-Bcl-2): 9.52

O=C(NS(=O)(=O)c1ccc(NCC2CCOCC2)c([N+](=O)[O-])c1)c1ccc(N2CCN(Cc3cc(OCCN4CCCC4)ccc3-c3ccc(Cl)cc3)CC2)cc1Oc1ccccc1 [Example 138, 4-(4-{[4′-chloro-4-(2-pyrrolidin-1-ylethoxy)-1,1′-biphenyl-2-yl]methyl}piperazin-1-yl)-N-({3-nitro-4-[(tetrahydro-2H-pyran-4-ylmethyl)amino]phenyl}sulfonyl)-2-phenoxybenzamide]
pKi (GST-Bcl-XL): 8.29
pEC50 (Canine platelets): 4.75
pEC50 (FL5.12/Bcl-2 cells): 7.54
pKi (GST-Bcl-2): 11.05

CC(C)N(CCOc1ccc(-c2ccc(Cl)cc2)c(CN2CCN(c3ccc(C(=O)NS(=O)(=O)c4ccc(NCC5CCOCC5)c([N+](=O)[O-])c4)c(Oc4ccccc4)c3)CC2)c1)C(C)C [Example 139, 4-[4-({4′-chloro-4-[2-(diisopropylamino)ethoxy]-1,1′-biphenyl-2-yl}methyl)piperazin-1-yl]-N-({3-nitro-4-[(tetrahydro-2H-pyran-4-ylmethyl)amino]phenyl}sulfonyl)-2-phenoxybenzamide]
pKi (GST-Bcl-XL): 7.98
pEC50 (Canine platelets): 4.41
pEC50 (FL5.12/Bcl-2 cells): 7.34
pKi (GST-Bcl-2): 10.00

O=C(NS(=O)(=O)c1ccc(NCC2CCOCC2)c([N+](=O)[O-])c1)c1ccc(N2CCN(Cc3ccccc3-c3ccc(Cl)cc3)CC2)cc1Oc1ccc2c(c1)CCN2 [Example 140, 4-{4-[(4′-chloro-1,1′-biphenyl-2-yl)methyl]piperazin-1-yl}-2-(2,3-dihydro-1H-indol-5-yloxy)-N-({3-nitro-4-[(tetrahydro-2H-pyran-4-ylmethyl)amino]phenyl}sulfonyl)benzamide]
pKi (GST-Bcl-XL): < 6.18
pEC50 (Canine platelets): < 4.30
pEC50 (FL5.12/Bcl-2 cells): 5.67
pKi (GST-Bcl-2): 8.33

O=C(NS(=O)(=O)c1ccc(NCCCN2CCCC2)c([N+](=O)[O-])c1)c1ccc(N2CCN(CC3=C(c4ccc(Cl)cc4)CCCCC3)CC2)cc1Oc1cccc2[nH]ccc12 [Example 141, 4-(4-{[2-(4-chlorophenyl)cyclohept-1-en-1-yl]methyl}piperazin-1-yl)-2-(1H-indol-4-yloxy)-N-({3-nitro-4-[(3-pyrrolidin-1-ylpropyl)amino]phenyl}sulfonyl)benzamide]
pKi (GST-Bcl-XL): 7.54
pEC50 (Canine platelets): < 4.30
pEC50 (FL5.12/Bcl-2 cells): 7.12
pKi (GST-Bcl-2): 9.17

O=C(NS(=O)(=O)c1ccc(NCCCN2CCCC2)c([N+](=O)[O-])c1)c1ccc(N2CCN(CC3=C(c4ccc(Cl)cc4)CCCCCC3)CC2)cc1Oc1cccc2[nH]ccc12 [Example 142, 4-(4-{[2-(4-chlorophenyl)cyclooct-1-en-1-yl]methyl}piperazin-1-yl)-2-(1H-indol-4-yloxy)-N-({3-nitro-4-[(3-pyrrolidin-1-ylpropyl)amino]phenyl}sulfonyl)benzamide]
pKi (GST-Bcl-XL): 6.99
pEC50 (Canine platelets): < 4.30
pEC50 (FL5.12/Bcl-2 cells): 6.57
pKi (GST-Bcl-2): 8.44

O=C(NS(=O)(=O)c1ccc(NCCCN2CCCC2)c([N+](=O)[O-])c1)c1ccc(N2CCN(CC3=C(c4ccc(Cl)cc4)CCC3)CC2)cc1Oc1cccc2[nH]ccc12 [Example 143, 4-(4-{[2-(4-chlorophenyl)cyclopent-1-en-1-yl]methyl}piperazin-1-yl)-2-(1H-indol-4-yloxy)-N-({3-nitro-4-[(3-pyrrolidin-1-ylpropyl)amino]phenyl}sulfonyl)benzamide]
pKi (GST-Bcl-XL): 7.12
pEC50 (Canine platelets): < 4.30
pEC50 (FL5.12/Bcl-2 cells): 6.70
pKi (GST-Bcl-2): 8.65

CN1CCC(Nc2ccc(S(=O)(=O)NC(=O)c3ccc(N4CCN(CC5=C(c6ccc(Cl)cc6)CC(C)(C)C5)CC4)cc3Oc3cccc4[nH]ccc34)cc2[N+](=O)[O-])CC1 [Example 144, 4-(4-{[2-(4-chlorophenyl)-4,4-dimethylcyclopent-1-en-1-yl]methyl}piperazin-1-yl)-2-(1H-indol-4-yloxy)-N-({4-[(1-methylpiperidin-4-yl)amino]-3-nitrophenyl}sulfonyl)benzamide]
pKi (GST-Bcl-XL): < 6.18
pEC50 (Canine platelets): 4.40
pEC50 (FL5.12/Bcl-2 cells): 7.34
pKi (GST-Bcl-2): 7.27

CN1CCC(Nc2ccc(S(=O)(=O)NC(=O)c3ccc(N4CCN(CC5=C(c6ccc(Cl)cc6)CC(C)(C)OC5)CC4)cc3Oc3cccc4[nH]ccc34)cc2[N+](=O)[O-])CC1 [Example 145, 4-(4-{[4-(4-chlorophenyl)-6,6-dimethyl-5,6-dihydro-2H-pyran-3-yl]methyl}piperazin-1-yl)-2-(1H-indol-4-yloxy)-N-({4-[(1-methylpiperidin-4-yl)amino]-3-nitrophenyl}sulfonyl)benzamide]
pKi (GST-Bcl-XL): 7.92
pEC50 (Canine platelets): 5.49
pEC50 (FL5.12/Bcl-2 cells): 8.40
pKi (GST-Bcl-2): 10.52

CN1CCC(Nc2ccc(S(=O)(=O)NC(=O)c3ccc(N4CCN(CC5=C(c6ccc(Cl)cc6)CCCCCC5)CC4)cc3Oc3cccc4[nH]ccc34)cc2[N+](=O)[O-])CC1 [Example 146, 4-(4-{[2-(4-chlorophenyl)cyclooct-1-en-1-yl]methyl}piperazin-1-yl)-2-(1H-indol-4-yloxy)-N-({4-[(1-methylpiperidin-4-yl)amino]-3-nitrophenyl}sulfonyl)benzamide]
pKi (GST-Bcl-XL): < 6.18
pEC50 (Canine platelets): 4.66
pEC50 (FL5.12/Bcl-2 cells): 6.82
pKi (GST-Bcl-2): 7.35

CN1CCC(Nc2ccc(S(=O)(=O)NC(=O)c3ccc(N4CCN(CC5=C(c6ccc(Cl)cc6)CCCCC5)CC4)cc3Oc3cccc4[nH]ccc34)cc2[N+](=O)[O-])CC1 [Example 147, 4-(4-{[2-(4-chlorophenyl)cyclohept-1-en-1-yl]methyl}piperazin-1-yl)-2-(1H-indol-4-yloxy)-N-({4-[(1-methylpiperidin-4-yl)amino]-3-nitrophenyl}sulfonyl)benzamide]
pKi (GST-Bcl-XL): < 6.18
pEC50 (Canine platelets): 4.75
pEC50 (FL5.12/Bcl-2 cells): 8.05
pKi (GST-Bcl-2): 9.29

CN1CCC(Nc2ccc(S(=O)(=O)NC(=O)c3ccc(N4CCN(CC5=C(c6ccc(Cl)cc6)CCCC5)CC4)cc3Oc3cccc4[nH]ccc34)cc2[N+](=O)[O-])CC1 [Example 149, 4-(4-{[2-(4-chlorophenyl)cyclohex-1-en-1-yl]methyl}piperazin-1-yl)-2-(1H-indol-4-yloxy)-N-({4-[(1-methylpiperidin-4-yl)amino]-3-nitrophenyl}sulfonyl)benzamide]
pKi (GST-Bcl-XL): < 6.18
pEC50 (Canine platelets): 4.78
pEC50 (FL5.12/Bcl-2 cells): 7.89
pKi (GST-Bcl-2): 9.58

CN1CCC(Nc2ccc(S(=O)(=O)NC(=O)c3ccc(N4CCN(CC5=C(c6ccc(Cl)cc6)CC(C)(C)OC5)CC4)cc3Oc3ccc4[nH]ccc4c3)cc2[N+](=O)[O-])CC1 [Example 150, 4-(4-{[4-(4-chlorophenyl)-6,6-dimethyl-5,6-dihydro-2H-pyran-3-yl]methyl}piperazin-1-yl)-2-(1H-indol-5-yloxy)-N-({4-[(1-methylpiperidin-4-yl)amino]-3-nitrophenyl}sulfonyl)benzamide]
pKi (GST-Bcl-XL): 8.03
pEC50 (Canine platelets): 5.54
pEC50 (FL5.12/Bcl-2 cells): 8.22
pKi (GST-Bcl-2): 10.85

CN1CCC(Nc2ccc(S(=O)(=O)NC(=O)c3ccc(N4CCN(CC5=C(c6ccc(Cl)cc6)CCCCC5)CC4)cc3Oc3ccc4[nH]ccc4c3)cc2[N+](=O)[O-])CC1 [Example 151, 4-(4-{[2-(4-chlorophenyl)cyclohept-1-en-1-yl]methyl}piperazin-1-yl)-2-(1H-indol-5-yloxy)-N-({4-[(1-methylpiperidin-4-yl)amino]-3-nitrophenyl}sulfonyl)benzamide]
pKi (GST-Bcl-XL): < 6.18
pEC50 (Canine platelets): 4.50
pEC50 (FL5.12/Bcl-2 cells): 7.31
pKi (GST-Bcl-2): 9.79

CN1CCC(Nc2ccc(S(=O)(=O)NC(=O)c3ccc(N4CCN(CC5=C(c6ccc(Cl)cc6)CC(C)(C)CC5)CC4)cc3Oc3ccccc3)cc2[N+](=O)[O-])CC1 [Example 152, 4-(4-{[2-(4-chlorophenyl)-4,4-dimethylcyclohex-1-en-1-yl]methyl}piperazin-1-yl)-N-({4-[(1-methylpiperidin-4-yl)amino]-3-nitrophenyl}sulfonyl)-2-phenoxybenzamide]
pKi (GST-Bcl-XL): 9.39
pEC50 (Canine platelets): 5.58
pEC50 (FL5.12/Bcl-2 cells): 8.05
pKi (GST-Bcl-2): 10.59

CN(C)CCCNc1ccc(S(=O)(=O)NC(=O)c2ccc(N3CCN(Cc4ccccc4-c4ccc(Cl)cc4)CC3)cc2Oc2ccccc2)cc1[N+](=O)[O-] [Example 154, 4-{4-[(4′-chloro-1,1′-biphenyl-2-yl)methyl]piperazin-1-yl}-N-[(4-{[3-(dimethylamino)propyl]amino}-3-nitrophenyl)sulfonyl]-2-phenoxybenzamide]
pKi (GST-Bcl-XL): 8.27
pEC50 (Canine platelets): 4.54
pEC50 (FL5.12/Bcl-2 cells): 7.07
pKi (GST-Bcl-2): 9.88

O=C(NS(=O)(=O)c1ccc(NCCCN2CCOCC2)c([N+](=O)[O-])c1)c1ccc(N2CCN(Cc3ccccc3-c3ccc(Cl)cc3)CC2)cc1Oc1ccccc1 [Example 155, 4-{4-[(4′-chloro-1,1′-biphenyl-2-yl)methyl]piperazin-1-yl}-N-({4-[(3-morpholin-4-ylpropyl)amino]-3-nitrophenyl}sulfonyl)-2-phenoxybenzamide]
pKi (GST-Bcl-XL): 7.42
pEC50 (Canine platelets): < 4.30
pEC50 (FL5.12/Bcl-2 cells): 6.38
pKi (GST-Bcl-2): 9.32
